Data reported in patent US9205050B2, “Antibiotic formulations, unit doses, kits and methods” (Bayer Intellectual Property GmbH, priority 2005, dated 2015).
Where a name gives a salt, the structure may show the parent alone. Read-outs that look alike come from different tables or passages of the source. Blank lines part the entries; values can stand above or below the molecule they belong to.

How the values were obtained:
[1] = solubility study of Vancomycin HCl in water (saturated solution, UV 280 nm); format: physicochemical; conditions: thermodynamic from solid, water for injection, stirred 48 h, filtered, read-out: maximum solubility in water
Protocol: A saturated solution of Vancomycin HCl in water for injection was prepared by adding under stirring the active agent to the solvent.
Suspension was stirred for 48 h in order to reach the equilibrium conditions for the dissolution.
Suspensions was filtered first through a paper filter and then through a 0.45 μm PVDF filter discarding the first drops of solution which could have been diluted because of the binding of the product to the membrane.
The filtrated solutions of Vancomycin HCl in water coming from the respective saturated solutions, was diluted to reach a final concentration which gave an Abs value at λ=280 nm included into the calibration curve.
Each diluted solution was analysed in triplicate with UV at λ=280 nm. For each solution the absorbances have been mediated and the final value has been substituted in the respective calibration curve equation to calculate the concentration.

[2] = pH of Vancomycin HCl solutions, bulk solution and reconstituted lyophilizate; format: physicochemical
Protocol: […] On the final solution, pH and density were measured and appearance was evaluated. After lyophilization the following analyses were performed on the final product: • water content by Karl Fischer titration; • appearance of the cake, • reconstitution time, • appearance/clarity, • pH after reconstitution.

[3] = density of Vancomycin HCl solutions; format: physicochemical
Protocol: On the final solution, pH and density were measured and appearance was evaluated. […]

[4] = particle size distribution of nebulized aerosol, laser diffraction; format: physicochemical; conditions: solutions in WFI 60 to 140 mg/ml, fill 2 to 4 ml
CD rats = experiment: 14-consecutive day nose-only inhalation toxicity and recovery; format: in vivo, rat
Protocol: This Example involved evaluating the potential toxicity and recovery resulting from a 14-consecutive day, nose-only inhalation administration of vancomycin hydrochloride (vancomycin) to CD rats.
The solution was used to generate aerosolized vancomycin for all vancomycin exposure groups.
Nose-only exposures were conducted in a “flow-past” cylindrical inhalation chamber placed inside a steel-framed Plexiglas secondary containment box. The chamber contained 48 animal ports, each compatible with a single nose-only exposure tube, aerosol concentration sampling device (e.g., filter), or oxygen monitor.
The total air flow through the exposure system was balanced to achieve individual animal port flows of ˜500 mL/min (port flow approximated based on total chamber flow). Measured flows included sample flow rate, nebulizer flow rate, dilution flow rate (chamber make-up air), and chamber exhaust flow.
Vancomycin solution was aerosolized with two Aerotech II nebulizers operated at 20 psi driving pressure. The target aerosol Vancomycin concentration for all exposure levels was ˜1.0 mg/L.
Aerosolized vancomycin was administered to 3 groups of male and female CD rats (available from Charles River Laboratories, Kingston, N.Y.) for durations of 30 min (Low), 90 min (Mid), and 180 min (High). A control group was exposed for 180 min to aerosols generated from a normal saline solution. Groups of rats from the Control and High level 14-day exposures were also studied following a 14-day recovery period. Endpoints included clinical observations, body weights, clinical pathology (hematology, clinical chemistry), urinalyses, organ weights, and histopathology.

[5] = 14-consecutive day face mask inhalation toxicity and recovery; format: in vivo, dog; conditions: both sexes, beagle, dog, in vivo, inhaled, high exposure level (60 min)
Protocol: (§1) This Example involved evaluating the potential toxicity and recovery resulting from a 14-consecutive day, face mask inhalation administration of vancomycin hydrochloride to beagle dogs.
(§2) Within 2 hours prior to usage, a vancomycin nebulizer solution having a concentration of 120 mg/ml was formed by dissolving vancomycin hydrochloride (available from Alpharma, Copenhagen, Denmark) in sterile water for injection USP (available from B. Braun Medical Inc., Bethlehem, Pa.). The solution was used to generate aerosolized vancomycin for all vancomycin exposure groups.
(§3) The exposure system consisted of a single, cylindrical, plexiglass inhalation chamber (volume of ˜23.7 L, 14.61-cm radius, 35.56-cm height). The chamber was supplied with two Aerotech II nebulizers operated at ˜40 psi. Nebulized test article and nebulizer air supply was diluted with ˜10 L/min HEPA-filtered dilution air. The flow through the system was ˜36 L/min.
(§4) The aerosolized vancomycin was administered via a face mask to 3 groups of male and female beagle dogs for durations of 15 min (Low), 30 min (Mid), and 60 min (High). A control group was exposed for 60 min to aerosols generated from normal saline solution, i.e., 0.9% sodium chloride injection USP (available from B. Braun Medical Inc.).
(§5) Groups of dogs from the Control and High level 14-day exposures were also studied following a 14-day recovery period. Endpoints for all groups of dogs included physical examinations, clinical observations, body weights, opthalmology, cardiovascular EKG, clinical pathology (hematology, clinical chemistry), urinalyses, organ weights, histopathology, and toxicokinetics.

beagle dogs = experiment: as above; format: in vivo, dog
Protocol: as §1, §2, §3, §4, §5

[6] = osmolality of gentamicin sulfate solutions; format: physicochemical
Protocol: Solubility in water was determined via visual assessment. Osmolality and pH were also determined. […] The solubility was determined by visual assessment.

[7] = exposure aerosol from 120 mg/ml solution

Molecule: CN[C@H](CC(C)C)C(=O)N[C@H]1C(=O)N[C@@H](CC(N)=O)C(=O)N[C@H]2C(=O)N[C@H]3C(=O)N[C@H](C(=O)N[C@H](C(=O)O)c4cc(O)cc(O)c4-c4cc3ccc4O)[C@H](O)c3ccc(c(Cl)c3)Oc3cc2cc(c3O[C@@H]2O[C@H](CO)[C@@H](O)[C@H](O)[C@H]2O[C@H]2C[C@](C)(N)[C@H](O)[C@H](C)O2)Oc2ccc(cc2Cl)[C@H]1O [Vancomycin HCl, vancomycin hydrochloride]
solubility at 48 h [1]: 141 mg/mL
pH ([2]; 100.12 mg/mL in water): 3.8-4.1
pH ([2]; 110.16 mg/mL in water): 3.7-3.9
pH ([2]; 120.26 mg/mL in water): 3.6-3.8
pH ([2]; 130.5 mg/mL in water): 3.5-3.7
pH ([2]; 140.8 mg/mL in water): 3.4-3.5
Density ([3]; 100.12 mg/mL in water): 1.027 g/mL
Density ([3]; 110.16 mg/mL in water): 1.034 g/mL
Density ([3]; 120.26 mg/mL in water): 1.037 g/mL
Density ([3]; 130.5 mg/mL in water): 1.042 g/mL
Density ([3]; 140.8 mg/mL in water): 1.046 g/mL
volume weighted median size [4]: 2-3 μm
no observed effect level (CD rats; 14-day inhalation): not established
tolerability of exposures (CD rats; 30, 90, 180 min/day, 14 days, about 1.2 mg/L): well-tolerated
lung weight increase (CD rats; High exposure level (180 min)): ~19 % of control
lung weight increase (CD rats; Low exposure level (30 min)): approximately 8 % of control
increase in aspartate aminotransferase (AST) values (CD rats; Mid and High exposure levels): 28-46%
neutrophils (hematology) (CD rats; Mid and High exposure levels): statistically significant increase
lung weight increase (CD rats; Mid exposure level (90 min)): ~20 % of control
histopathologic findings after recovery (CD rats; after 14 days of recovery, High level): substantial diminution of these findings
body weight (CD rats; all exposure levels): no vancomycin treatment related effects
clinical observations (CD rats; all exposure levels): no vancomycin related effects
serum indicators of kidney function or urinalysis (CD rats; all exposure levels): No vancomycin related changes
survival (CD rats; all exposure levels, 14 days): All rats survived to scheduled necropsy
exposure related histopathologic findings (CD rats; end of 14-day exposure): limited to the respiratory tract
mean particle size, mass median aerodynamic diameter (CD rats; [7]): 2.0-2.6 μm
NOAEL at 14 days ([5]; read-out: no observed adverse effect level (NOAEL), deposited lung dose): 9 mg/kg
NOAEL at 14 days ([5]; read-out: no observed adverse effect level (NOAEL), inhaled dose): 45 mg/kg
recovery of histopathological effects (beagle dogs; 14-day recovery, High level): complete after 14 days
tolerability of exposures (beagle dogs; 15, 30, 60 min/day, 14 days, about 1.4-1.5 mg/L): well-tolerated
physical examinations, clinical observations, opthalmology, ECG, hematology, clinical chemistry, urinalyses, gross necropsy, organ weights (beagle dogs; all exposure levels): no vancomycin related effects
survival (beagle dogs; all exposure levels, 14 days): All dogs survived to scheduled necropsy
effects of exposure in histopathology (beagle dogs; end of 14-day exposure): limited to microscopic findings in the lung
mean particle size, mass median aerodynamic diameter (beagle dogs; [7]): 1.9-2.6 μm

Osmolality ([6]; 20 mg/ml active in 0.9% saline): 318 mOsmol/kg
Osmolality ([6]; 20 mg/ml active in WFI): 61 mOsmol/kg
Osmolality ([6]; 40 mg/ml active in 0.9% saline): 353 mOsmol/kg
Osmolality ([6]; 40 mg/ml active in WFI): 101 mOsmol/kg
Osmolality ([6]; 80 mg/ml active in 0.9% saline): 445 mOsmol/kg
Osmolality ([6]; 80 mg/ml active in WFI): 197 mOsmol/kg
Osmolality ([6]; 120 mg/ml active in WFI): 275 mOsmol/kg
Osmolality ([6]; 200 mg/ml active in WFI): 524 mOsmol/kg
Osmolality ([6]; 250 mg/ml active in WFI): 1178 mOsmol/kg
Osmolality ([6]; 300 mg/ml active in WFI): 2013 mOsmol/kg
Molecule: gentamicin sulfate
